US20070191431A1, “2-Amino-5-piperidinylimidazolone compounds and use thereof for beta-secretase modulation” (Wyeth, priority 2005, published 2007)
Like-named read-outs stand apart in the source and are kept apart here.

Assays:
human BACE1 = human BACE1 (Homo sapiens, UniProt P56817); assay: BACE-1 fluorescent kinetic assay (Example 88); format: biochemical
Method: Evaluation of BACE-1 Binding Affinity of Test Compounds
Fluorescent Kinetic Assay
Dilution and mixing steps: total reaction volume: 100 μL
100 μM substrate dilution in 1× PBS was prepared, and
Fluorescence Readings: Readings at Aex 320 nm and Aem 420 nm are taken every 40 sec for 30 min at room temperature and the linear slope for substrate cleavage rate (vi) determined.

[1] = 10 nM enzyme, 25 μM substrate WABC-6, Na-Acetate pH 4.5, room temperature, read-out: BACE1 (IC50 μM)

Sequence of human BACE1 (P56817 46-501): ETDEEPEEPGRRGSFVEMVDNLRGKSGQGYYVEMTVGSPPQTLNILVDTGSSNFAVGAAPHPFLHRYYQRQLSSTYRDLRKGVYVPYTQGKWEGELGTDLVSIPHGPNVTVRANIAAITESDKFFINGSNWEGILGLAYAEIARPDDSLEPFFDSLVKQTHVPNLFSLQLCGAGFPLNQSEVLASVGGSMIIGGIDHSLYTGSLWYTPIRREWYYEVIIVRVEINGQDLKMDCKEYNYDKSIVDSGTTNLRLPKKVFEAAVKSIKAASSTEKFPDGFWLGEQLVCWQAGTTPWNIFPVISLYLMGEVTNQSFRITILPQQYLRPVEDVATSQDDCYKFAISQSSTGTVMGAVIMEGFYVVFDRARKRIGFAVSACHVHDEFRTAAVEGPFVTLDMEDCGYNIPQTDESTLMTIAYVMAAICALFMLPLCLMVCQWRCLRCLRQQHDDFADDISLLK

| IC50 (human BACE1; [1]) | melting point | SMILES | IC50 (human BACE1) |
| --- | --- | --- | --- |
| 0.01 to 1 µM | 138 to 140 °C | CN1C(=O)C(c2cccc(-c3ccccc3)c2)(C2CCN(C(=O)c3ccsc3)CC2)N=C1N (stereo not shown) [Example 12, 2-amino-5-(1,1′-biphenyl-3-yl)-3-methyl-5-[1-(thien-3-ylcarbonyl)piperidin-4-yl]-3,5-dihydro-4H-imidazol-4-one] | – |
| 0.01 to 1 µM | 152 to 154 °C | CN1C(=O)C(c2cccc(-c3ccccc3)c2)(C2CCN(C(=O)c3ccc(C#N)cc3)CC2)N=C1N (stereo not shown) [Example 16, 4-({4-[2-amino-4-(1,1′-biphenyl-3-yl)-1-methyl-5-oxo-4,5-dihydro-1H -imidazol-4-yl]piperidin-1-yl}carbonyl)benzonitrile] | – |
| 0.01 to 1 µM | 165 to 168 °C | CN1C(=O)C(c2cccc(-c3cccc(F)c3)c2)(C2CCN(C(=O)c3ccccc3)CC2)N=C1N (stereo not shown) [Example 84, 2-amino-5-(1-benzoylpiperidin-4-yl)-5-(3′-fluorobiphenyl-3-yl)-3-methyl-3,5dihydro-4H-imidazol-4-one] | – |
| 0.01 to 1 µM | 163 to 165 °C | COc1cccc(-c2cccc(C3(C4CCN(C(=O)c5ccccc5)CC4)N=C(N)N(C)C3=O)c2)c1 (stereo not shown) [Example 83, 2-amino-5-(1-benzoylpiperidin-4-yl)-5-(3′-methoxybiphenyl-3-yl)-3-methyl-3,5-dihydro-4H-imidazol-4-one] | – |
| > 3 µM | 135 to 138 °C | C#CCCC(=O)N1CCC(C2(c3cccc(NC(=O)COC)c3)N=C(N)N(C)C2=O)CC1 (stereo not shown) [Example 47] | – |
| 0.01 to 1 µM | 139 to 141 °C | COc1ccc(C(=O)N2CCC(C3(c4cccc(-c5ccccc5)c4)N=C(N)N(C)C3=O)CC2)cc1OC (stereo not shown) [Example 13, 2-amino-5-(1,1′-biphenyl-3-yl)-5-[1-(3,4-dimethoxybenzoyl)piperidin-4-yl]-3-methyl-3,5-dihydro4H-imidazol-4-one] | – |
| 0.01 to 1 µM | > 250 °C | COCC(=O)Nc1cccc(C2(C3CCN(C(=O)c4ccc(C(=O)[O-])cc4)CC3)N=C(N)N(C)C2=O)c1.[Na+] (stereo not shown) [Example 36, Sodium 4-{[4-(2-Amino4-{3-[(methoxyacetyl)amino]phenyl}-1-methyl-5-oxo-4,5-dihydro-1H-imidazol-4-yl)piperidin-1-yl]carbonyl}benzoate] | – |
| 0.01 to 1 µM | 149 to 152 °C | COCC(=O)Nc1cccc(C2(C3CCN(C(=O)c4ccc(OCc5ccccc5)cc4)CC3)N=C(N)N(C)C2=O)c1 (stereo not shown) [Example 33] | – |
| 1.01 to 3 µM | 141 to 143 °C | CN1C(=O)C(c2cccc(-c3ccccc3)c2)(C2CCN(C(=O)c3cccc(C#N)c3)CC2)N=C1N (stereo not shown) [Example 17, 3-({4-[2-amino-4-(1,1′-biphenyl-3-yl)-1-methyl-5-oxo-4,5-dihydro-1H -imidazol-4-yl]piperidin-1-yl}carbonyl)benzonitrile] | – |
| 0.01 to 1 µM | 161 to 163 °C | COCC(=O)Nc1cccc(C2(C3CCN(C(=O)c4ccc(C(=O)OC)cc4)CC3)N=C(N)N(C)C2=O)c1 (stereo not shown) [Example 35, Methyl 4-{[4-(2-amino-4-{3-[(methoxyacetyl)amino]phenyl}-1-methyl-5-oxo-4,5-dihydro-1H-imidazol-4-yl)piperidin-1-yl]carbonyl}benzoate] | – |
| 1.01 to 3 µM | 79 to 80 °C | COCC(=O)Nc1cccc(C2(C3CCN(C(=O)COC)CC3)N=C(N)N(C)C2=O)c1 (stereo not shown) [Example 56] | – |
| 0.01 to 1 µM | 105 to 107 °C | COCC(=O)Nc1cccc(C2(C3CCN(C(=O)CCC(C)C)CC3)N=C(N)N(C)C2=O)c1 (stereo not shown) [Example 49] | – |
| 0.01 to 1 µM | 148 to 152 °C | COCC(=O)Nc1cccc(C2(C3CCN(C(=O)c4cccs4)CC3)N=C(N)N(C)C2=O)c1 (stereo not shown) [Example 55] | – |
| 0.01 to 1 µM | 135 to 137 °C | CN1C(=O)C(c2cccc(-c3ccccc3)c2)(C2CCN(C(=O)c3cccs3)CC2)N=C1N (stereo not shown) [Example 3, 2-Amino-5-(1,1′-biphenyl-3-yl)-3-methyl-5-[1-(thien-2-ylcarbonyl) -piperidin4-yl]-3,5-dihydro-4H-imidazol-4-one] | – |
| 0.01 to 1 µM | > 150 °C (dec.) | CN1C(=O)C(c2cccc(-c3cc(F)cc(F)c3)c2)(C2CCN(C(=O)c3ccccc3)CC2)N=C1N (stereo not shown) [Example 87, 2-amino-5-(1-benzoylpiperidin-4-yl)-5-(3′,5′-difluorobiphenyl-3-yl)-3-methyl-3,5-dihydro-4H-imidazol-4-one] | – |
| 0.01 to 1 µM | 156 to 158 °C | CN1C(=O)C(c2cccc(-c3cncnc3)c2)(C2CCN(C(=O)c3ccccc3)CC2)N=C1N (stereo not shown) [Example 81, 2-amino-5-(1-benzoylpiperidin-4-yl)-3-methy-5-(3-pyrimidin-5-ylphenyl)-3,5-dihydro-4H-imidazol-4-one] | – |
| 0.01 to 1 µM | 145 to 148 °C | COCC(=O)Nc1cccc(C2(C3CCN(C(=O)C(C)C)CC3)N=C(N)N(C)C2=O)c1 (stereo not shown) [Example 42] | – |

| IC50 (human BACE1; [1]) | melting point | SMILES | IC50 (human BACE1) |
| --- | --- | --- | --- |
| 0.01 to 1 µM | > 130 °C (dec.) | COCC(=O)Nc1cccc(C2(C3CCN(C(=O)C4CC4)CC3)N=C(N)N(C)C2=O)c1 (stereo not shown) [Example 37] | – |
| 0.01 to 1 µM | 131 to 133 °C | COCC(=O)Nc1cccc(C2(C3CCN(C(=O)CC4CCCCC4)CC3)N=C(N)N(C)C2=O)c1 (stereo not shown) [Example 38] | – |
| 0.01 to 1 µM | 120 to 122 °C | COCC(=O)Nc1cccc(C2(C3CCN(C(=O)C(F)(F)F)CC3)N=C(N)N(C)C2=O)c1 (stereo not shown) [Example 58] | – |
| 1.01 to 3 µM | 121 to 124 °C | CN1C(=O)C(c2cccc(-c3ccccc3)c2)(C2CCN(C(=O)COCc3ccccc3)CC2)N=C1N (stereo not shown) [Example 6, 2-amino-5-{1-[(benzyloxy)acetyl]piperidin4-yl}-5-(1,1′-biphenyl-3-yl)-3-methyl-3,5-dihydro-4H-imidazol-4-one] | – |
| > 3 µM | 144 to 146 °C | CN1C(=O)C(c2cccc(-c3ccccc3)c2)(C2CCN(C(=O)c3ccccc3C#N)CC2)N=C1N (stereo not shown) [Example 18, 2-({4-[2-amino4-(1,1′-biphenyl-3-yl)-1-methyl-5-oxo-4,5-dihydro-1H -imidazol-4-yl]piperidin-1-yl}carbonyl)benzonitrile] | – |
| 0.01 to 1 µM | 139 to 142 °C | COCC(=O)Nc1cccc(C2(C3CCN(C(=O)c4cc5ccccc5o4)CC3)N=C(N)N(C)C2=O)c1 (stereo not shown) [Example 46] | – |
| 0.01 to 1 µM | 184 to 187 °C | COCC(=O)Nc1cccc(C2(C3CCN(C(=O)c4ccc(O)cc4)CC3)N=C(N)N(C)C2=O)c1 (stereo not shown) [Example 34, N-(3-{2-Amino-4-[1-(4-hydroxybenzoyl)piperidin4-yl]-1-methyl-5-oxo-4,5-dihydro-1H-imidazol-4-yl}phenyl)-2-methoxyacetamide] | – |
| 0.01 to 1 µM | > 150 °C (dec.) | CN1C(=O)C(c2cccc(-c3cc(F)ccc3F)c2)(C2CCN(C(=O)c3ccccc3)CC2)N=C1N (stereo not shown) [Example 86, 2-amino-5-(1-benzoylpiperidin-4-y)-5-(2′,5′-difluorobiphenyl-3-yl)-3-methyl-3,5-dihydro-4H-imidazol-4-one] | – |
| 0.01 to 1 µM | 134 to 136 °C | COCC(=O)Nc1cccc(C2(C3CCN(C(=O)C4CCCC4)CC3)N=C(N)N(C)C2=O)c1 (stereo not shown) [Example 40] | – |
| 0.01 to 1 µM | 152 to 154 °C | CN1C(=O)C(c2cccc(-c3cccnc3F)c2)(C2CCN(C(=O)c3ccccc3)CC2)N=C1N (stereo not shown) [Example 80, 2-amino-5-(1-benzoylpiperidin-4-yl)-5-[3-(2-fluoropyridin-3-yl)phenyl]-3-methyl-3,5-dihydro-4H-imidazol-4-one] | – |
| 0.01 to 1 µM | 189 to 190 °C | CN1C(=O)C(c2cccc(C3CCCCC3)c2)(C2CCN(C(=O)c3ccccc3)CC2)N=C1N (stereo not shown) [Example 24, 2-amino-5-(1-benzoylpiperidin-4-yl)-5-(3-cyclohexylphenyl)-3-methyl-3,5-dihydr-4H -imidazol-4-one] | – |
| 0.01 to 1 µM | 150 to 153 °C | COc1cncc(-c2cccc(C3(C4CCN(C(=O)c5ccccc5)CC4)N=C(N)N(C)C3=O)c2)c1 (stereo not shown) [Example 82, 2-amino-5-(1-benzoylpiperidin-4-yl)-5-[3-(5-methoxypyridin-3-yl)phenyl]-3-methyl-3,5-dihydro-4H-imidazol-4-one] | – |
| 0.01 to 1 µM | 131 to 133 °C | CCCOc1ccc(C(=O)N2CCC(C3(c4cccc(-c5ccccc5)c4)N=C(N)N(C)C3=O)CC2)cc1 (stereo not shown) [Example 22, 2-amino-5-(1,1′-biphenyl-3-yl)-3-methyl-5-[1-(4-propoxybenzoyl)piperidin4-yl]-3,5-dihydro4H-imidazol-4-one] | – |
| 0.01 to 1 µM | 136 to 137 °C | CN1C(=O)C(c2cccc(-c3ccccc3)c2)(C2CCN(C(=O)c3ccccc3)CC2)N=C1N (stereo not shown) [Example 4, 2-amino-5-(1-benzoylpiperidin-4-yl)-5-(1,1′-biphenyl-3-yl)-3-methyl-3,5-dihydro-4H -imidazol-4-one] | – |
| 0.01 to 1 µM | 150 to 153 °C | COCC(=O)Nc1cccc(C2(C3CCN(C(=O)c4cccc(F)c4)CC3)N=C(N)N(C)C2=O)c1 (stereo not shown) [Example 50] | – |
| 1.01 to 3 µM | 102 to 105 °C | CCC(CC)C(=O)N1CCC(C2(c3cccc(NC(=O)COC)c3)N=C(N)N(C)C2=O)CC1 (stereo not shown) [Example 43] | – |
| > 3 µM | 138 to 139 °C | CN1C(=O)C(c2cccc(-c3ccccc3)c2)(C2CCN(S(=O)(=O)c3ccccc3)CC2)N=C1N (stereo not shown) [Example 8, 2-amino-5-(1,1′-biphenyl-3-yl)-3-methyl-5-[1-(phenylsulfonyl)piperidin-4-yl]-3,5-dihydro-4H-imidazol-4-one] | – |

| SMILES | IC50 (human BACE1; [1]) | melting point | IC50 (human BACE1) |
| --- | --- | --- | --- |
| CN1C(=O)C(c2ccccc2)(C2CCNCC2)N=C1N (stereo not shown) [Example 27, 2-Amino-3-methyl-5-phenyl-5-piperidin-4-yl-3,5-dihydro-4H -imidazol-4-one] | – | 269 to 271 °C | > 3 µM |
